{"source": "patent US20120035187A1", "about": "(priority 2009, published 2012)", "key": {"[1]": {"assay": "Body weight of hamsters with cerebellar ataxia during administration", "format": "in vivo, hamster", "details": "compared between groups administered with PBS, NK-4 and IGF-1"}, "brain ischemia rat": {"tested_on": "brain ischemia rat", "assay": "Brain ischemia (cerebral infarction model) rat: behavioral score", "format": "in vivo", "design": "Behavioral score: scale not given here", "details": "for behavioral score (in words): Experiment 13, cerebral-infarction-model rat, administered through caudal vein", "method": "Male SD rats, seven- to eight-weeks of age and 280 to 330 g body weight, commercialized by Charles River Laboratories Japan Inc., Kanagawa, Japan, were allocated randomly into seven groups, consisting of five to seven rats in each group. Among the seven groups, five groups were subjected to the following surgery as test groups: Rats in the test groups were subcutaneously administered with 0.3 mg/kg body weight of atropine, commercialized by Fuso Pharmaceutical industries, Osaka, Japan. Successively, each rat was anesthetized by administrating 600 mg/kg body weight of urethane, commercialized by Sigma-Aldrich Co., MO, USA, and 60 mg/kg-weight of […], commercialized by Sigma-Aldrich Co., MO, USA, into the peritoneal cavity, and fixed to a fixator under voluntary breathing conditions. The right carotid artery bifurcation was exposed by median incision of the neck without damaging vagus nerve. The common carotid artery and external carotid artery around the right carotid artery bifurcation were exfoliated from surrounding connective tissue and wired respectively using “NESCOSUTURE”, a 6-0 nylon string commercialized by Alfresa Pharma Corporation, Osaka, Japan. Then, the internal carotid artery was tied with the 6-0 nylon string for fixation after insertion of an obturator. Successively, the common carotid artery was incised and a silicon-coated obturator, prepared by a 4-0 nylon string, commercialized by Doccol Corp., CA, USA, was inserted from the common carotid artery into the internal carotid artery at a distance of about 16 mm, and clipped to the common carotid artery (see, for example, Koizumi et al., Cerebral stroke, Vol. 8, No. 1, pp. 1-8 (1986)). By the method, the silicon-coated tip of obturator was inserted through the right carotid artery bifurcation to frontal cerebral artery at a distance of about 2 mm and obstructs the inlet of the medial cerebral artery. After two hours occlusion of the medial cerebral artery while keeping the rat on an isothermal pad controlled at a temperature of 37° C., blood was allowed to reperfuse by withdrawing the obturator. Then, the internal carotid artery was tied near the carotid artery bifurcation for preventing the bleeding from the incised part of the common carotid artery. In the model, the blood was reperfused through the left carotid artery, vertebral artery, basilar artery, frontal and backward communication artery because the right carotid artery was clipped.\nNK-4, NK-19, NK-53, NK-100, and NK-557, used in the test, were respectively dissolved in DMSO (product No. “D8418”, commercialized by Sigma-Aldrich Co., MO, USA) to give a concentration of 5 mg/ml and filtrated using “MILLEX-LG SLLG025SS”, a DMSO-resistant membrane filter commercialized by Millipore, MA, USA. Stock […], and then 4 ml/kg body weight of any of the resulting diluted solutions was administered ([…]) to five test groups (test groups 1 to 5) consisting of five or seven rats, through their caudal veins at both after one hour from the occlusion of middle cerebral artery and immediately after initiating reperfusion. After 24 hours from the reperfusion of blood, behavioral and histological evaluations of rats were carried out according to the following procedures: As a control group 1, five rats in one group out of the remaining two groups were subjected to the same surgery as the rats in the test groups 1 to 5, and administered with 4 ml/kg body weight of PBS free of any of the compounds through their caudal veins at both after one hour of the medial cerebral artery occlusion and immediately after the start of reperfusion. As the control group 2, six rats in the remaining one group were subjected to a sham surgery, in which common, external, and internal carotid arteries were clipped and then reperfused their blood without inserting the obturator to each medial cerebral artery. […]"}, "APP Tg mouse": {"tested_on": "APP Tg mouse", "assay": "Novelty object recognition test, APP transgenic mouse", "details": "for Index for object discrimination: intraperitoneal, five times a week for 12 weeks"}, "PC12-HS cells": {"tested_on": "PC12-HS cells", "assay": "Apoptosis induced by amyloid β fragment, Hoechst 33258 staining", "format": "cell-based, rat", "details": "50 μM amyloid β fragment, NK-4 200 ng/ml", "method": "A plurality of peptide fragments (called “AMYLOID β FRAGMENT” commercialized by AnaSpec, Inc., CA, USA, each peptide having the amino acid sequence of SEQ ID NO:1), which have an amino acid sequence positioning from 25th to 35th from the N-terminus of amyloid R peptide with human origin and have been recognized as a main factor of neurocyte death in Alzheimer's disease, were diluted with phosphate buffered saline (PBS) to give a concentration of 2 mM, and used after being aged at 37° C. for six hours to coagulate them to increase their cytotoxicity before use. […] Viability (%) of cells in each well was determined and shown in Table 1 by calculating a relative value when the fluorescent intensity of the control was regarded as 100%. […] Thereafter, the cells were stained with […] Hoechst 33258 dye commercialized by SIGMA Corporation, Tokyo, Japan, for five min, observed at a magnitude corresponding to a visual filed containing about 100 cells under a phase contrast microscope and a fluorescent microscope, and counted. The occupied percentage (%) of cells with apoptosis against the total cells in one visual field was calculated and the data was also shown in Table 1. […]"}, "PI3K-Akt cascade": {"tested_on": "PI3K-Akt cascade", "assay": "Actions of NK-4 on PC12-HS cells in presence of K252a or LY294002", "format": "cell-based, rat", "details": "concrete data omitted"}, "[2]": {"details": "brain ischemia rats (embolus, 2 h occlusion, reperfusion), 100 p g/kg body weight via caudal vein 1 h after occlusion and at reperfusion, 24 hours after reperfusion, maximum score 6"}, "[3]": {"details": "embolus rat, dose 100 μg per kg body weight, caudal vein"}, "[4]": {"details": "i.p. five times a week for 12 weeks"}}, "note": "Marks after values point to notes of the source that are not given here."}
{"smiles": "CCN1C=CC(=CC=C(C=Cc2cc[n+](CC)c3ccccc23)c2cc[n+](CC)c3ccccc23)c2ccccc21.[I-].[I-]", "note": "[NK-4]", "values": [{"measurement": "body weight of hamsters with cerebellar A, weighed once every week up to 10-weeks of age", "setting": "[1]", "value": "no significant difference"}, {"measurement": "behavioral score (in words)", "setting": "brain ischemia rat", "value": "significantly improved"}, {"measurement": "Behavioral score", "setting": "brain ischemia rat; [2]", "value": "2.9 ± 0.2"}, {"measurement": "Behavioral score", "setting": "brain ischemia rat; embolus rat, dose 25 μg per kg body weight, caudal vein", "value": "4.5 ± 0.6"}, {"measurement": "Behavioral score", "setting": "brain ischemia rat; embolus rat, dose 50 μg per kg body weight, caudal vein", "value": "3.3 ± 0.4"}, {"measurement": "Behavioral score", "setting": "brain ischemia rat; [3]", "value": "2.6 ± 0.2"}, {"measurement": "Behavioral score", "setting": "brain ischemia rat; embolus rat, dose 200 μg per kg body weight, caudal vein", "value": "3.7 ± 0.4"}, {"measurement": "Behavioral score", "setting": "brain ischemia rat; embolus rat, dose 300 μg per kg body weight, caudal vein", "value": "4.2 ± 0.5"}, {"measurement": "Index for object discrimination", "setting": "APP Tg mouse; dose 100 μg/kg body weight", "value": "0.20 ± 0.06"}, {"measurement": "Index for object discrimination", "setting": "APP Tg mouse; dose 500 μg/kg body weight", "value": "0.30 ± 0.05"}, {"measurement": "adverse effect", "setting": "APP Tg mouse; [4]", "value": "No adverse effect"}, {"measurement": "object discrimination test (in words)", "setting": "APP Tg mouse; [4]", "value": "improved the dementia"}, {"measurement": "Percentage of appoptosis-induced cells (%) Amyloid β fragment", "setting": "PC12-HS cells", "value": "13 ** %"}, {"measurement": "inhibition by K252a of the actions of NK-4 on PC12-HS cell growth promotion and neurite outgrowth", "setting": "PI3K-Akt cascade; K252a, protein kinase inhibitor specific to TrkA", "value": "did not inhibit"}, {"measurement": "inhibition by LY294002 of the action of NK-4", "setting": "PI3K-Akt cascade; LY294002, PI3K inhibitor", "value": "is inhibited by LY294002"}]}
{"smiles": "CC[n+]1ccccc1/C=C/c1ccc(N(C)C)cc1", "note": "[NK-557]", "values": [{"measurement": "Behavioral score", "setting": "brain ischemia rat; [2]", "value": "2.9 ± 0.3"}]}
{"smiles": "CCCCN1C=C/C(=C/C=C(/C=C/c2cc[n+](CCCC)c3ccccc23)c2cc[n+](CCCC)c3ccccc23)c2ccccc21", "note": "[NK-26]", "values": [{"measurement": "behavioral score (in words)", "setting": "brain ischemia rat", "value": "significantly improved"}, {"measurement": "Behavioral score", "setting": "brain ischemia rat; embolus rat, dose 1 μg per kg body weight, caudal vein", "value": "4.4 ± 0.4"}, {"measurement": "Behavioral score", "setting": "brain ischemia rat; embolus rat, dose 10 μg per kg body weight, caudal vein", "value": "3.44 ± 0.6"}, {"measurement": "Behavioral score", "setting": "brain ischemia rat; [3]", "value": "4.3 ± 0.4"}]}
{"smiles": "CCN1/C(=C/C=C(/C=C/c2sc3ccccc3[n+]2CC)c2sc3ccccc3[n+]2CC)Sc2ccccc21.[I-].[I-]", "note": "[NK-100]", "values": [{"measurement": "Behavioral score", "setting": "brain ischemia rat; [2]", "value": "2.4 ± 0.2"}]}
